The subject of one data set is Cal27 cells. Briefly: Mitochondria membrane potential by TMRE uptake, Cal27. The note with it: Cal27, 30 μM, 4 h. Type of data set: cell-based. The protocol: FaDu and Cal27 cells were treated with test compounds (0.2 million cells per treatment) and were incubated for 1 h with 100 μM of 2-NBDG (Invitrogen, N13195), in glucose free medium, washed with ice-cold PBS, and re-suspended in 500 μL of PBS and maintained on ice to perform flow cytometric analyses within 30 min. The mean fluorescent intensity (MFI) readout reflects the amount of fluorescent glucose analog taken up by the cells, providing insight into their glucose uptake capacity. The percent (%) cell population positive for glucose uptake (shown with a right shift of the histogram peaks) were also plotted for both the cell lines. For MMP analysis, cells were incubated with 200 nM of TMRE (Invitrogen, T669) for 30 min. For each measurement, data was collected for 10,000 events using a BD FACS Aria III (Becton Dickinson, San Jose, CA) instrument.
Mitochondria utilize the oxidizable substrates to produce a membrane potential as the proton gradient ([Sivandzade et al., 2019]). […] To determine the change in MMP post-treatment with HK2 inhibitors, the cells were treated with 200 nM of TMRE (tetramethyl rhodamine ethyl ester, a cell-permeant cationic dye readily sequestered by active mitochondria) and flow cytometric analyses of TMRE uptake was carried out. […]

Data set [1] can be described thus: Cytotoxicity in normal HFF1 cells. Type of data set: cell-based, human. The note with it: human, HFF1 cells (normal).
A further data set has as its system HFF1. Briefly: Cytotoxicity in normal HFF1 cells. Type of data set: cell-based, human.
For data set [2], the system named is EGFR tyrosine kinase receptor phosphorylation. Also on record: method as in Chakraborty et al., 2022. Particulars: 10 µM, 72 h of treatment; ref Chakraborty et al., 2022; cited from earlier work.
For the next data set, the system named is Cal27 spheroids. Briefly: 3D spheroid culture of Cal27 cells. The class given is cell-based. The protocol:
Cal27 cells were seeded at a density of 10,000 cells per well in a 96-well plate coated with 1.5% agarose in incomplete medium. For the prophylactic treatment, medium containing the compounds was added to each well after 6 h of seeding. For treatment, compounds were added after 48 h of seeding. After incubation with the compounds, spheroids were imaged using phase-contrast microscopy to assess the morphology and size. Subsequently, the spheroids were pooled and dissociated into single cell suspension with trypsin for 10 min, washed with PBS and stained with propidium iodide (Cat# BD556547) to analyze the number of apoptotic cells using flow cytometry. For the analysis of spheroid images, each image was processed using ImageJ software where the threshold of each 8-bit image was adjusted to differentiate the darker spheroid area (the inner core) from the lighter spheroid area (the peripheral layers). Subsequently, the darker and lighter areas were measured in pixel square units using the ‘analyze particles’ option in ImageJ.
Cells plated in monolayer cultures might behave differently as compared to 3D cultures. The 3D cultures can better mimic the tumor development and serve as a better tool for drug screening ([Zanoni et al., 2016]). Therefore, spheroid cultures of Cal27 cells were prepared and treated with lead H2. […]

For the next data set, the system named is FaDu oral cancer cells. Briefly: MTT antiproliferative assay, FaDu. Type of data set: cell-based. Particulars: Homo sapiens, FaDu; MTT, 72 h treatment; mean ± SEM; read-out: GI50 for FaDu. The protocol: FaDu cell line was cultured in RPMI-1640 medium containing L-glutamine (300 mg/L) and sodium bicarbonate (2 g/L), while Cal27, HEK293 and HFF-1 cell lines were cultured in DMEM medium containing glucose (4.5 g/L), L-glutamine (584 mg/L) and sodium bicarbonate (3.7 g/L). For gene expression and qPCR studies, RNA isolation was performed using Trizol (Thermo). The reagents and the primer sequences employed for the qPCR assays have been described previously ([Chakraborty et al., 2022]).
The hits derived from the docking study were sourced from either commercial suppliers or pre-existing compounds within our laboratory or were synthesized anew. The FaDu and Cal27 oral cancer cells were treated with the compounds for 72 h at concentrations of 3, 10, 30, and 100 μM. A post-treatment MTT assay was done to evaluate their antiproliferative activity. Table S2 represents the anti-proliferative and enzyme inhibitory activity of the compounds obtained as hits from the structure-based drug design strategy. […] Consequently, 50 μM of all the hit compounds were evaluated for their HK2 enzyme inhibitory activity. 50 μM of compounds were incubated with HK2 protein and the rate of reaction was assessed in kinetic mode (rate of conversion of NAD to NADH). The choice of 50 μM concentration was based primarily on MTT assays and GI50 calculation. The average GI50 values of the hit compounds against less sensitive FaDu cell line was approximately 50 μM. Considering this information, we reasoned that utilizing a concentration equivalent to the average GI50 would allow us to assess the maximum inhibitory effect of the compounds on HK2 enzyme activity. […] The same compounds have been previously reported by our team to have EGFR phosphorylation inhibitory potential and were coded as H2 (compound 14) and H10 (compound 11) ([Chakraborty et al., 2022]). […] Figures 1C,D show the lead compounds H2 and H10 at the active site of HK2 enzyme interacting via H-bonds with the amino acid residues.

As to `COc1ccc(CNC(=O)c2nc3ccccc3s2)cc1O` [Compound 14, N-(3-hydroxy-4methoxybenzyl)benzo[d]thiazole-2-carboxamide], the “MMP reduction compared to H10 and CCCP” value in the data set on Cal27 cells was “more effective in reducing the MMP”. In data set [1], this molecule showed a CC50 above 100 µM. The “Selectivity index (Cal27)” value in the data set with HFF1 (CC50/GI50, HFF1 vs Cal27) is listed as above 4.6. For the same molecule, in the data set with HFF1 (CC50/GI50, HFF1 vs FaDu), the “Selectivity index (FaDu)” value is reported as above 1.6. The “phosphorylation of the EGFR tyrosine kinase receptor” value in data set [2] is listed as “inhibits the phosphorylation”. In addition, the spheroid growth entry in the data set with Cal27 spheroids (prophylactic and therapeutic treatment) was “reduction of spheroid growth”. Also, in the data set with Cal27 spheroids (propidium iodide staining at the end of the study), the “population of dead cells in spheroids” value is “increase in the population of dead cells”. Besides, the GI50 with FaDu oral cancer cells was determined as 63.1 µM.

The values are drawn from paper PMC10961359, “Targeting hexokinase 2 for oral cancer therapy: structure-based design and validation of lead compounds” (Frontiers in Pharmacology, 2024).
